For assay [1], the target named is T1, Lysine-specific histone demethylase 1A (Homo sapiens, UniProt O60341).
In assay [2] the test system is Bel-7402. The assay can be described thus: animal or person. The following applies: Mus musculus, Bel-7402, po, 504 h, read-out: TGI.
In assay [3] the test system is NCI-H1975. The assay can be described thus: cells. The following applies: Homo sapiens.
In assay [4] the target is Histone deacetylase 1 (Homo sapiens, UniProt Q13547). The assay can be described thus: Inhibition of HDAC1 (unknown origin).
Sequence of Histone deacetylase 1 (Q13547 whole entry): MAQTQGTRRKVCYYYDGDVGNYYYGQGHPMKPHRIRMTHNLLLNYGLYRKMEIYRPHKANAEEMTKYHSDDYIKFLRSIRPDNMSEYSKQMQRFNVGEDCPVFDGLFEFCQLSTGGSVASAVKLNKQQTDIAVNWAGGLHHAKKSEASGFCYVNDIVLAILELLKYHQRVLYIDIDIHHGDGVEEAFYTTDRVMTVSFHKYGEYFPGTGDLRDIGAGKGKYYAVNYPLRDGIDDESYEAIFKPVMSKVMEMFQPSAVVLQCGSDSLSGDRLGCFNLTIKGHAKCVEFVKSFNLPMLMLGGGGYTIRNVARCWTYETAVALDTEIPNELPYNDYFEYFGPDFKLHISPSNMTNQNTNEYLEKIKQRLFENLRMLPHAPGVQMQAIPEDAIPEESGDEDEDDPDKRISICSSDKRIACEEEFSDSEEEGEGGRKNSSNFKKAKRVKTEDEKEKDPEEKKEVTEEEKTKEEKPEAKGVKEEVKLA
For assay [5], the system named is MIA PaCa-2. The assay can be described thus: Antiproliferative activity against human MIA PaCa-2 cells assessed as reduction in cell viability incubated for 72 hrs by MTT assay. The class given is functional, cell-based. The conditions noted are these: MIA PaCa-2, 72 h. A general note: Formazan colour is commonly taken as a measure of viable cells.
For assay [6], the system named is A549. The assay can be described thus: Antiproliferative activity against human A549 cells assessed as reduction in cell viability incubated for 72 hrs by MTT assay. The class given is functional, cell-based. The following applies: A549, 72 h.
Assay [7] relates to HT-29. The assay can be described thus: Antiproliferative activity against human HT-29 cells assessed as reduction in cell viability incubated for 72 hrs by MTT assay. The format is functional, cell-based. The following applies: HT-29, 72 h.
The test system of assay [8] is A2058. The assay can be described thus: Antiproliferative activity against human A2058 cells assessed as reduction in cell viability incubated for 72 hrs by MTT assay. The conditions noted are these: A2058, 72 h. The class given is functional, cell-based.
For assay [9], the target named is T1, Lysine-specific histone demethylase 1A. The assay can be described thus: Inhibition of human recombinant LSD1 incubated for 60 mins by fluorescence based analysis.
The target in assay [10] is T2, Amine oxidase [flavin-containing] A (Homo sapiens, UniProt P21397).
T2 sequence (P21397 whole entry): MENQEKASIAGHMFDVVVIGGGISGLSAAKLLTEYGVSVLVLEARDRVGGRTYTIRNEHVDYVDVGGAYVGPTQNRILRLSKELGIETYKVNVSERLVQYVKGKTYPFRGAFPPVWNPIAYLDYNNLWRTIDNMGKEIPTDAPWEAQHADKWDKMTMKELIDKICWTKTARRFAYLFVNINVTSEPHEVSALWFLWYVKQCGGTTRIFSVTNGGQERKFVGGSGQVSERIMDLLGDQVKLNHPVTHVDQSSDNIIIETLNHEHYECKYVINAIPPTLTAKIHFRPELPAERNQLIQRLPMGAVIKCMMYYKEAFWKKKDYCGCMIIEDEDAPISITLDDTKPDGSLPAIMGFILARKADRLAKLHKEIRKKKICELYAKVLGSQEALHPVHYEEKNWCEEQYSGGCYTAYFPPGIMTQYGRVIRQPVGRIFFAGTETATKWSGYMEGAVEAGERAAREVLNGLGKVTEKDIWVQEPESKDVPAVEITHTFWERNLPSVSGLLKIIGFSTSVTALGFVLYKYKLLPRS
The assay can be described thus: Inhibition of MAO-A (unknown origin) measured by MAO-GloTM method.

As to `O=C(O)c1ccc(CN2CCC(CN[C@@H]3C[C@H]3c3ccccc3)CC2)cc1` [GSK2879552], half-maximal inhibition in assay [1] (IC50) was put at 1.7 µM.

As to `COc1ccc(S(=O)(=O)N(CCSC(=S)N2CCN(C)CC2)c2cc(OC)c(OC)c(OC)c2)cc1`, in [2], the inhibition in vivo at 60 mg/kg was determined as 43%.

Compound `C=CC(=O)Nc1cc(Nc2nccc(-c3cn(C)c4ccccc34)n2)c(OC)cc1N(C)CCN(C)C` [OSIMERTINIB] showed an IC50 in assay [3] of […].

Turning to `NC1CC1c1ccc(NC(=O)CCC(=O)NCCCNCCCCNCCCNC(=O)c2ccc(NC(=O)CCCCCCC(=O)NO)cc2)cc1` (stereo unspecified), the half-inhibitory concentration (IC50) in [1] came to 3.85 µM; in [4], 0.0425 µM.

For the compound `O=C(N/N=C/c1ccccc1O)c1cccc(Cl)c1`, the IC50 was found to be 9.5 µM in assay [5], 2.4 µM in assay [6], 0.95 µM in assay [7] and 6.5 µM in assay [8].

With `COC1=CC(=O)OC(/C=C/c2ccccc2)C1` (stereo unspecified), the half-maximal inhibitory concentration (IC50) was determined as 3.85 µM in assay [9] and 0.00129 µM in assay [10].

By IC50 is commonly meant the midpoint of a concentration-inhibition curve.

The values above are taken from ChEMBL document CHEMBL5505955, “Exploring the potential of histone demethylase inhibition in multi-therapeutic approaches for cancer treatment” (Eur J Med Chem, 2024).
